Results taken from PubChem BioAssay (NCI).
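Five compound concentrations were applied to cells in 96-well plates for 48 hours; endpoints were derived by simple linear interpolation of the resulting dose-response curve. TGI: concentration producing complete growth inhibition.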

How the values were obtained:
Assay in all cases: inhibition of tumour cell growth, NCI panel, 48 h
A498 renal = tested on: A498 renal
CCRF-CEM leukemia = tested on: CCRF-CEM leukemia
HCC-2998 colon = tested on: HCC-2998 colon
HT29 colon = tested on: HT29 colon
MALME-3M melanoma = tested on: MALME-3M melanoma
MOLT-4 leukemia = tested on: MOLT-4 leukemia
NCI-H226 lung = tested on: NCI-H226 lung
NCI-H522 lung = tested on: NCI-H522 lung
OVCAR-3 ovarian = tested on: OVCAR-3 ovarian
SF-539 CNS = tested on: SF-539 CNS
SK-MEL-2 melanoma = tested on: SK-MEL-2 melanoma
SK-MEL-28 melanoma = tested on: SK-MEL-28 melanoma
SK-OV-3 ovarian = tested on: SK-OV-3 ovarian
SNB-75 CNS = tested on: SNB-75 CNS
SW-620 colon = tested on: SW-620 colon
HS 578T breast = tested on: HS 578T breast
MDA-MB-231 breast = tested on: MDA-MB-231 breast

SMILES | TGI (A498 renal) | TGI (CCRF-CEM leukemia) | TGI (HCC-2998 colon) | TGI (HT29 colon) | TGI (MALME-3M melanoma) | TGI (MOLT-4 leukemia) | TGI (NCI-H226 lung) | TGI (NCI-H522 lung) | TGI (OVCAR-3 ovarian) | TGI (SF-539 CNS) | TGI (SK-MEL-2 melanoma) | TGI (SK-MEL-28 melanoma) | TGI (SK-OV-3 ovarian) | TGI (SNB-75 CNS) | TGI (SW-620 colon) | TGI (HS 578T breast) | TGI (MDA-MB-231 breast)
C/C(=N/N)c1sc(-c2nc(C)c(/C(C)=N\N)s2)nc1C | > 100 µM | > 76.7 µM | > 100 µM | > 100 µM | > 100 µM | 83.3 µM | > 100 µM | > 100 µM | > 100 µM | > 100 µM | > 100 µM | > 100 µM | > 100 µM | > 100 µM | > 100 µM |  | 
CCOC(=O)c1nc2cc(F)cc(F)c2[nH]c1=O | > 100 µM | > 100 µM | > 100 µM | > 100 µM |  | > 100 µM | > 100 µM |  | > 100 µM | > 100 µM | > 100 µM | > 100 µM | > 100 µM | > 100 µM | > 100 µM | > 100 µM | > 100 µM
O=Cc1ccc(-c2ccc(S(=O)(=O)O)cc2)o1 | > 100 µM |  | > 100 µM | > 100 µM | > 100 µM | > 100 µM | > 100 µM | > 100 µM | > 100 µM | > 100 µM | > 100 µM | > 100 µM | > 100 µM |  | > 100 µM | > 100 µM | > 100 µM
COC(=O)C1=COC2OC3CC1C2C(C)O3 (stereo unspecified) | > 100 µM | > 100 µM | > 100 µM | > 100 µM | > 100 µM | > 100 µM | > 100 µM | > 100 µM | > 100 µM | > 100 µM | > 100 µM | > 100 µM | > 100 µM |  | > 100 µM | > 100 µM | > 100 µM
Oc1ccc(/C=N/c2nccs2)c(O)c1 |  |  | > 100 µM | > 100 µM | > 100 µM |  | > 100 µM | > 100 µM | > 100 µM | > 100 µM |  |  | > 100 µM | > 100 µM |  | > 100 µM | > 100 µM
O=C1c2c(O)cccc2Cc2cc(CO)cc(O)c21 | 17.8 µM | > 100 µM | 18.4 µM | > 100 µM | 5.37 µM | 57.9 µM | 17.3 µM |  | 5.03 µM |  |  | 27.3 µM |  | 5.44 µM | > 100 µM |  | 5.67 µM
CCOC(=O)c1ccc(N(CCOS(=O)(=O)c2ccc(C)cc2)CCOS(=O)(=O)c2ccc(C)cc2)cc1 | > 100 µM | > 100 µM | > 100 µM | > 100 µM | > 100 µM | > 100 µM |  | > 100 µM | > 100 µM | 41.1 µM | 66.8 µM |  |  |  | > 100 µM | > 100 µM | 86.8 µM
COC1OC(Cn2cc([N+](=O)[O-])nc2C)C(O)C(O)C1O (stereo unspecified) | > 100 µM | > 100 µM | > 100 µM | > 100 µM | > 100 µM | > 100 µM |  | > 100 µM | > 100 µM |  | > 100 µM | > 100 µM | > 100 µM |  | > 100 µM | > 100 µM | > 100 µM
CCN1C/C(=C\c2ccc(Cl)cc2)c2[nH]c(=O)c(C#N)c(-c3ccc(Cl)cc3)c2C1 | > 100 µM | > 100 µM | > 100 µM | > 100 µM | > 100 µM | > 100 µM | > 100 µM |  | > 100 µM | > 100 µM | > 100 µM | > 100 µM | > 100 µM |  | > 100 µM |  | > 100 µM
C[C@H]1S[C@H](c2c(F)cccc2F)n2c1nc1ccccc12 |  | > 100 µM | > 100 µM | > 100 µM | > 100 µM | > 100 µM | > 100 µM |  | > 100 µM |  | > 100 µM | > 100 µM | > 100 µM | > 100 µM | > 100 µM | > 100 µM | > 100 µM
COC1C(=O)N(SC)C1c1ccccc1Cl (stereo unspecified) | > 100 µM | 35.1 µM | 28.8 µM | 40.7 µM | 44.4 µM | 31.6 µM |  | 33.5 µM | 34.3 µM | 35.2 µM | > 100 µM | > 100 µM | > 100 µM |  | 45.6 µM | > 100 µM | 87.3 µM
COC1(C)CNCC(C)(C)NC(=O)C(C)(OC)CNCC(C)(C)NC1=O (stereo unspecified) | > 100 µM | > 100 µM | > 100 µM | > 100 µM | > 100 µM | > 100 µM | > 100 µM | > 100 µM | > 100 µM | > 100 µM | > 100 µM | > 100 µM | > 100 µM | > 100 µM | > 100 µM |  | 
Nn1c(CCCCCCCCc2n[nH]c(=S)n2N)n[nH]c1=S | > 100 µM | > 100 µM | > 100 µM | > 100 µM | > 100 µM | > 100 µM | > 100 µM | > 100 µM | > 100 µM | > 100 µM | > 100 µM | > 100 µM | > 100 µM | > 100 µM | > 100 µM |  | > 100 µM
O=C1NC(N2CCCCC2)=N/C1=C\c1ccco1 |  | > 100 µM | > 100 µM | > 100 µM | > 100 µM | > 100 µM | > 100 µM | > 100 µM | > 100 µM | > 100 µM | > 100 µM | > 100 µM | > 100 µM |  | > 100 µM | > 100 µM | > 100 µM
O=C(CCN1CCCC1)c1ccc(Oc2ccc(F)cc2)cc1 |  | 46.7 µM | > 100 µM | > 100 µM | > 100 µM | 43.3 µM | > 100 µM |  | > 100 µM | > 100 µM | > 100 µM | > 100 µM | > 100 µM | > 100 µM | > 100 µM | > 100 µM | > 100 µM
Cc1ccc(O)c(C(c2cc(C)ccc2O)c2cc([N+](=O)[O-])ccc2O)c1 | 39.5 µM | 91 µM | 25.5 µM | 38.3 µM |  | 35 µM | 55.8 µM | 30 µM | 25.4 µM | 33.9 µM | 28.2 µM | 39.6 µM | 37 µM | 21.2 µM | 67 µM | 37.9 µM | 22.3 µM
